Reference: publication PMC7400788, “RAF dimer inhibition enhances the antitumor activity of MEK inhibitors in K‐RAS mutant tumors” (Molecular Oncology, 2020)
Read-outs that look alike come from different tables or passages of the source.

Columns and labels:
[1] = biological target: T1, WT B‐RAF (Homo sapiens, UniProt P15056, V600E); assay: TR-FRET kinase assay, MEK1 (K97R) substrate; format: biochemical
T1 construct: gene BRAF; overexpressed in HEK293 cells, immunoprecipitated

[2] = biological target: T2, WT B‐RAF (Homo sapiens, UniProt P15056); assay: TR-FRET kinase assay, MEK1 (K97R) substrate; format: biochemical
T2 construct: gene BRAF; overexpressed in HEK293 cells, immunoprecipitated

[3] = biological target: T3, WT C‐RAF (Homo sapiens, UniProt P04049); assay: TR-FRET kinase assay, MEK1 (K97R) substrate; format: biochemical
T3 construct: gene RAF1; overexpressed in HEK293 cells, immunoprecipitated

[4] = biological target: EGFR (Homo sapiens, UniProt P00533); assay: biochemical kinase assay (details not told)
From the text: biochemical kinase assay (details not told) on EGFR | Biochemical activity of compound C against WT B‐RAF, B‐RAF^V600E, C‐RAF, and EGFR

[5] = read-out: BGB-283 IC50 (nM) / 1 h
[6] = 1 mM ATP, 1 h pre-incubation, room temperature, time-dependent inhibition (6 h and 24 h pre-incubation also tested), read-out: Compound C IC50 (nM) / 1 h

T3 sequence (P04049 whole entry): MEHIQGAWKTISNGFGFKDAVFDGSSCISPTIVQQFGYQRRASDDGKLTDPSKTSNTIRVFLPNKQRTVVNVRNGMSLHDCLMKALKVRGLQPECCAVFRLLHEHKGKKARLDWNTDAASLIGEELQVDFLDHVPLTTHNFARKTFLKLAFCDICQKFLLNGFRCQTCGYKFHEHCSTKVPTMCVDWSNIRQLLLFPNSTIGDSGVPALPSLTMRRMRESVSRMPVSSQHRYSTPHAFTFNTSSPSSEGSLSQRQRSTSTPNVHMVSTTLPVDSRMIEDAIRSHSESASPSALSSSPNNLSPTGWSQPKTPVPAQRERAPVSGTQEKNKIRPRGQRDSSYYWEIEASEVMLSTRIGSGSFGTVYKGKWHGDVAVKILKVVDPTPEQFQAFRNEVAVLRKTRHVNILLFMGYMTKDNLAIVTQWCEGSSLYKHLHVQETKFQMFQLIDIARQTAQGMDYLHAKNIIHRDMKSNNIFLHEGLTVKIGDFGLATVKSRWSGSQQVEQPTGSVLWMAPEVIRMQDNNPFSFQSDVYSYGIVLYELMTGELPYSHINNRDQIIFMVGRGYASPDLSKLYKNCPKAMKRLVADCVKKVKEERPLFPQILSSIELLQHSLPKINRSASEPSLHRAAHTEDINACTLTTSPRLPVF
T1 sequence (P15056 2-766 V600E): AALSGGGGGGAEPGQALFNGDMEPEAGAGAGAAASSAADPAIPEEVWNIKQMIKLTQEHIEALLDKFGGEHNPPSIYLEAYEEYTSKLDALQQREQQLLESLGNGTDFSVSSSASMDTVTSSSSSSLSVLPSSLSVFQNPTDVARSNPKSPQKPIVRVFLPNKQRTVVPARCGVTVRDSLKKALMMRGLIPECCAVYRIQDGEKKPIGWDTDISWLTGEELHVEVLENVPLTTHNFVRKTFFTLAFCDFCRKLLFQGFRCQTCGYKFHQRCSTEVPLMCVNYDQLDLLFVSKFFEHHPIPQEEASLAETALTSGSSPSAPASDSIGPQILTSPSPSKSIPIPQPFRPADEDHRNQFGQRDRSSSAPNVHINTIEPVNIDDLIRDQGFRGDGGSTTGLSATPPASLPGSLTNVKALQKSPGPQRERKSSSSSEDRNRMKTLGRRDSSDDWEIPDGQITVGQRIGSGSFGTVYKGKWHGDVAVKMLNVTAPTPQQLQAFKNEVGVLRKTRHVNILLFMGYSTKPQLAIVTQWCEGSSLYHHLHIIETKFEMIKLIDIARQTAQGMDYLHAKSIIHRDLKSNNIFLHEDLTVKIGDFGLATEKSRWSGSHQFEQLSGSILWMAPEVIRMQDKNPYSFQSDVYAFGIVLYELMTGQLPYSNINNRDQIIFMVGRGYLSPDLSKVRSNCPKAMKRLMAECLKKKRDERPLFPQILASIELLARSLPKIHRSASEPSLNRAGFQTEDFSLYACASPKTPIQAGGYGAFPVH
T2 sequence (P15056 2-766): as the sequence (P15056 2-766 V600E) above, with E599V counted along it
Sequence of EGFR (P00533 25-1210): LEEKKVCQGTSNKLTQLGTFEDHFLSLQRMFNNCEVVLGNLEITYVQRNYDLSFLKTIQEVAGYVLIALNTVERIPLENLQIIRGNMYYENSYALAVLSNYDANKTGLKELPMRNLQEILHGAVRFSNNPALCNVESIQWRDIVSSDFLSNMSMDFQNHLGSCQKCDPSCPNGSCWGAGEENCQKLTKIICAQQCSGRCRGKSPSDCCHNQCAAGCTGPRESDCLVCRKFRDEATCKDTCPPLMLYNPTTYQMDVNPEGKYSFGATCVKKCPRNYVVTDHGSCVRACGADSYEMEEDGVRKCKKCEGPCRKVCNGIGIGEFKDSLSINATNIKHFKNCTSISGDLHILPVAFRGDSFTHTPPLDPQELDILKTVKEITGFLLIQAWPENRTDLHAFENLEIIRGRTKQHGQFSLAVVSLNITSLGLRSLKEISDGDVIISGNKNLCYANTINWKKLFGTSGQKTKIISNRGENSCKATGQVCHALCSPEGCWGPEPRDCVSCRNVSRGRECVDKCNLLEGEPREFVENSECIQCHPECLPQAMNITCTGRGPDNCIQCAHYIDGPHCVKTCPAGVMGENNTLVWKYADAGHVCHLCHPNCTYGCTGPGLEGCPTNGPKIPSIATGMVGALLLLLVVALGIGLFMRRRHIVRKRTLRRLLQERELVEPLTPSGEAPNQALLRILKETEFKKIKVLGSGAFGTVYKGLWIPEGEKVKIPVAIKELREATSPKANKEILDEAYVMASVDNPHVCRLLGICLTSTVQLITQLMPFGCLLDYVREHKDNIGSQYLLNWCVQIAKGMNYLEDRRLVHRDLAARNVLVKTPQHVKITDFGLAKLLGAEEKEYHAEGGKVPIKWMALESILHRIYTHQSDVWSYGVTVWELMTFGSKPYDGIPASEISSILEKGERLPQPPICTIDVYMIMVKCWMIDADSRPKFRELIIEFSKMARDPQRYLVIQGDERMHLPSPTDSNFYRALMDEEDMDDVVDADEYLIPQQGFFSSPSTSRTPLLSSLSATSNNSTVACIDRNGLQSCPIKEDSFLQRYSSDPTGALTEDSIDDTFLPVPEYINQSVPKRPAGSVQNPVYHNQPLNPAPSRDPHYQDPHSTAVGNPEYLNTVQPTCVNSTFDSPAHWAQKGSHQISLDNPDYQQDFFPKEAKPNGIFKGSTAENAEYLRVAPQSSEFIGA

| Compound | IC50 [1, 5] | IC50 [2, 5] | IC50 [3, 5] | IC50 [1, 6] | IC50 [2, 6] | IC50 [3, 6] | IC50 [4] |
| --- | --- | --- | --- | --- | --- | --- | --- |
| O=C1CCc2c(Oc3ccc4c(c3)[C@@H]3[C@H](O4)[C@H]3c3nc4ccc(C(F)(F)F)cc4[nH]3)ccnc2N1 [BGB‐283] | 49 nM | 2310 nM | 122 nM | – | – | – | – |
| c1cc(-c2cnn3cc(-c4ccc(OCCN5CCCCC5)cc4)cnc23)ccn1 [compound C] | – | – | – | 1.6 nM | 24 nM | 2.4 nM | 1270 nM |
